Columns and labels:
[1] = test system: prostaglandin E2 synthesis; experiment: Inhibition of eicosanoid (PGE2) synthesis in vivo, carrageenan air-pouch model in rats; design: species or system rat; settings: oral, male rats
Description: In this assay, an air-pouch is created in the rat and the PGE2 levels in the air-pouch exudate are measured by enzyme immunoassay. Briefly, male rats were anesthetized using a 60:40 CO2 :O2 mixture and subsequently injected subcutaneously with 20 ml of sterilized air, under aseptic conditions, in the proximal area of the dorsum. This injection of sterile air causes the creation of a subcutaneous "air pouch". The next day, a further 10 ml of sterile air was injected into the previously formed pouch using the same technique. […] Control rats received vehicle alone. After 30 minutes, 5 ml of a 0.5% solution of carrageenan (Sigma, Lambda Type IV) was injected into the air pouch. The rats were euthanized 3 hr after the compound administration. […] The total exudate volume was recorded, and the samples were analyzed for PGE2 and 6-keto PGF1 by ELISA (Titerzyme®, PerSeptive Diagnostics) and TxB2 by radioimmuno assay (New England Nuclear Research, Catalog No. NEK-037), according to the manufacturer's directions.
The mean concentrations of PGE2 were calculated for each group. The anti-inflammatory activity of test materials is expressed as the percent inhibition of PGE2 formation in the test group relative to the control group.

[2] = Carrageenan-induced paw edema in the rat (anti-inflammatory activity); format: in vivo; settings: 3 h, 30 mg/Kg, oral, female rats, read-out: % inhibition of increase in hind paw weight
Description: The anti-inflammatory activity of compounds of this invention was determined by measuring the inhibition of carrageenan-induced paw edema in the rat, using a modification of the method described in Winter C. k et al (1962) "Carrageenan-Induced Edema in Hind Paw of the Rat as an Assay for Anti-inflammatory Drugs". Proc. Soc. Exp. Biol. Med. 111: 544-547. This assay has been used as a primary in vivo screen for anti-inflammatory activity of most NSAIDs, and is considered predictive of human efficacy. Briefly, test materials were administered orally to female rats in a volume of 1 ml prepared as solutions or suspensions in an aqueous vehicle containing 0.9% NaCl, 0.5% sodium carboxymethyl-cellulose, 0.4% polysorbate 80, 0.9% benzyl alcohol and 97.3% distilled water. Control rats received vehicle alone. After 1 hr 0.05 ml of a 0.5% solution of Carrageenan (Type IV Lambda, Sigma Chemical Co.) in 0.9% saline was injected into the subplantar region of the right hind paw. Three hours later the rats were euthanized in a carbon dioxide atmosphere; hind paws were removed by severing at the tatso-crural joint; and the left and right paws were weighed. The increase in weight of the right paw over the left paw was obtained for each animal and the mean increases were calculated for each group. The anti-inflammatory activity of the test materials is expressed as the percent inhibition of the increase in hind paw weight of the test group relative to the vehicle-dosed control group.
The anti-inflammatory activities (expressed as % inhibition) of some of the compounds of the invention were: […]

COX I [3] = biological target: T1, COX I (Homo sapiens, UniProt P23219); experiment: Inhibition of COX I in vitro, partially purified enzyme, radiometric assay; format: biochemical; design: made in house; settings: 20 micromolar arachidonic acid
T1 sequence (P23219 24-599): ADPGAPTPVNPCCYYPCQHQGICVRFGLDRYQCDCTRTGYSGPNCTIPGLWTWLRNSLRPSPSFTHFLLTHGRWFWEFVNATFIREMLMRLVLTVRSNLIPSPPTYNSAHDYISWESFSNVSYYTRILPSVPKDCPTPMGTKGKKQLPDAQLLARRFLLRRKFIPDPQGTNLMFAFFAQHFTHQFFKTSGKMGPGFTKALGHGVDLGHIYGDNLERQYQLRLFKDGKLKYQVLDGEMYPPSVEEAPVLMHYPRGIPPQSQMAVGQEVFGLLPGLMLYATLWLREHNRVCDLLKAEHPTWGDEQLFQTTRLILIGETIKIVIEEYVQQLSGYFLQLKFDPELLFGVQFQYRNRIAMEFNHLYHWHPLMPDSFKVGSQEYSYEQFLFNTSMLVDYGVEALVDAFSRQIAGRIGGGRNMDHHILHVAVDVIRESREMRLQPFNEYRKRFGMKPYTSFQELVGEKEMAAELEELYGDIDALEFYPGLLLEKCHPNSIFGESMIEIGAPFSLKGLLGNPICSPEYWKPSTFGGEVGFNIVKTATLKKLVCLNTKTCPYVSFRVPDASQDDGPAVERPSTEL
Description: (§1) The COX I and COX II inhibitory activity of compounds of this invention in vitro was determined using partially purified COX I and COX II enzymes, prepared as described in J. Barnett et al, Biochim. Biophys.
(§2) COX I and COX II samples were diluted with Tris-HCl buffer (50 mM Tris-HCl, pH 7.9) containing 2 mM EDTA and 10% glycerol and reconstituted by incubating first with 2 mM phenol for 5 minutes and then with 1 micromolar hematin for an additional 5 minutes. 125 μl of the reconstituted COX I or COX II enzyme were preincubated for 10 minutes at room temperature in a shaking water bath with the compounds of the invention dissolved in 2-15 μl of DMSO or the carrier vehicles (control samples). The enzyme reaction was initiated by adding 25 μl of 1-[14C]arachidonic acid (80,000-100,000 cpm/tube; 20 micromolar final concentration) and the reaction was allowed to continue for an additional 45 seconds. The reaction was terminated by adding 100 μl of 2N HCl and 750 μl water. An aliquot (950 μl) of the reaction mixture was loaded onto a 1 ml C18 Sep-Pak column (J. T. Baker, Phillipsburg, N.J.) which had been previously washed with 2-3 ml methanol and equilibrated with 5-6 ml distilled water. Oxygenated products were quantitatively eluted with 3 ml of acetonitrile/water/acetic acid (50:50:0.1, v/v) and the radioactivity in the eluate determined in a scintillation counter.

COX II [4] = biological target: T2, COX II (Homo sapiens, UniProt P35354); experiment: Inhibition of COX II in vitro, partially purified enzyme, radiometric assay; format: biochemical; design: made in house; settings: 20 micromolar arachidonic acid
T2 sequence (P35354 18-604): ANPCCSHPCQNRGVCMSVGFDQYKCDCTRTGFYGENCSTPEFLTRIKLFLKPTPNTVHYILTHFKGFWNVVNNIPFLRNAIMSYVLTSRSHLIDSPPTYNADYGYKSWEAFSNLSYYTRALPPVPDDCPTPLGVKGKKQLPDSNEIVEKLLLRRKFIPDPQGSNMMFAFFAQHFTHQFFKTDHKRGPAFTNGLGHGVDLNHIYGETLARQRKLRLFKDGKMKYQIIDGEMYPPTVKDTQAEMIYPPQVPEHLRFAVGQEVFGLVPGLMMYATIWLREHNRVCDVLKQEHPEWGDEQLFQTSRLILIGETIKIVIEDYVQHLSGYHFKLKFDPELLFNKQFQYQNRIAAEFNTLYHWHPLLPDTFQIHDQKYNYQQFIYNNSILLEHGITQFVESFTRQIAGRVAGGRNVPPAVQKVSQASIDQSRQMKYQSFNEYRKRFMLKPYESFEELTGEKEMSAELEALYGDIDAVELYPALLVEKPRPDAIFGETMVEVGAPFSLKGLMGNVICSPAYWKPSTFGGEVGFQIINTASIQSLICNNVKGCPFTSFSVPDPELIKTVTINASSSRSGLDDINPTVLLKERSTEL
Description: as §1, §2

COX I [5] = biological target: T1, COX I; experiment: Inhibition of COX I in a cell based assay (human promonocytic THP cells, TXB2 ELISA); design: endogenous in cells; host or cells: human promonocytic THP cells, PMA-treated
Description: (§3) The COX I and COX II inhibitory activity of compounds of this invention in a cell based assay was determined as described below.
The inhibitory activity of the test compounds against cell associated COX-1 was measured using human promonocytic THP cells. Cells were plated in 96-well microtiter plates at a density of 8×10^4 cells/well in RPMI-1640 medium (Gibco). COX-1 activity was initiated by incubating the cells with 0.1μM phorbol 12-myristate 13-acetate (PMA, Sigma) in dimethyl sulfoxide (DMSO, Aldrich) at 37° C. After 40-48 hours, the medium was removed, and the cells were washed twice with phosphate buffered saline (PBS, Gibco). 225 μl/well of fresh medium containing desired concentrations of the test compounds in DMSO, or the carrier vehicles (control wells), was added and the cells incubated at 37° C. for 30 minutes; after which 5 μM calcium ionophore A23187 (Sigma) was added and the incubation was continued for an additional 10 minutes. The reaction was terminated by transferring the plates to ice. The culture supernatants were transferred and appropriately diluted and the amount of thromboxane B2 (TXB2) present in each supernatant was quantitated using an ELISA kit (Cayman Chemicals).
(§4) The COX I and COX II inhibitory activities in the cell based assay (expressed as IC50) of some compounds of the invention were: […]

COX II [6] = biological target: T2, COX II; experiment: Inhibition of COX II in a cell based assay (human foreskin fibroblasts, PGE2 ELISA); design: host or cells: primary human foreskin fibroblasts (HFF), induced with PMA and human interleukin-1; settings: human foreskin fibroblasts (HFF)
Description: as §3
The inhibitory activity of test compounds against cell associated COX-2 was measured using primary cultures of human foreskin fibroblasts (HFF). HFF cultures were obtained from ATCC, grown in DMEM medium (Gibco) and used between 13-30 passages. Cells were plated in 96-well microtiter plates at a density of 6-8×10^4 cells/well in DMEM containing 10% fetal calf serum (Sigma) and cultured at 37° C. until they became confluent. The medium was removed and the cells were washed once with PBS. COX-2 activity was induced by incubating the cells with fresh DMEM containing 0.1 μM phorbol 12-myristate 13-acetate (PMA, Sigma) and 1ng/ml of human interleukin-1 (Sigma) at 37° C. After 16 h the medium was removed and the cells were washed twice with phosphate buffered saline (PBS, Gibco). 200 μl/well of fresh medium containing desired concentrations of the test compounds in DMSO, or the carrier vehicle (control wells) was added and the cells incubated at 37° C. for 30 minutes; after which 5 μM calcium ionophore A23187 (Sigma) was added and the incubation was continued for an additional 10 minutes. The reaction was terminated by transferring the plates to ice. The culture supernatants were transferred and appropriately diluted, and the amount of prostaglandin E2 (PGE2) present in each supernatant was quantitated using an ELISA kit (Cayman Chemicals).
as §4

Row | Structure (SMILES) | IC50 (COX I [3]) [µM] | IC50 (COX II [4]) [µM] | IC50 (COX I [5]) [µM] | IC50 (COX II [6]) [µM] | % inhibition of air pouch PGE2 formation ([1]; 10 mg/Kg) [%] | inhibition in vivo at 30 mg/kg [2] [%] | % inhibition of air pouch PGE2 formation ([1]; 30 mg/Kg) [%]
1 | CSc1ccc(C(=O)c2cccc(Cc3ccc(=O)[nH]n3)c2Cl)cc1 [Cpd 5, 6-[3-(4-methylthio-benzoyl)-2-chlorobenzyl]-2H-pyridazin-3-one] | – | – | – | – | 32 | – | –
2 | CSc1ccc(C(=O)c2cccc(Cc3ccc(=O)[nH]n3)c2C)cc1 [Cpd 10, 6-[3-(4-methylthiobenzoyl)-2-methylbenzyl]-2H-pyridazin-3-one] | – | – | – | – | 24 | – | –
3 | COc1ccc(C(=O)c2c(Cl)cc(Cl)cc2Cl)cc1Cc1ccc(=O)[nH]n1 [Cpd 26, 6-[3-(2,4,6-trichlorobenzoyl)-6-methoxybenzyl]-2H-pyridazin-3-one] | 540 | 0.6 | 19 | 0.3 | – | 24 | –
4 | COc1ccc(C(=O)c2c(Cl)cc(C)cc2Cl)cc1Cc1ccc(=O)[nH]n1 [Cpd 28, 6-[3-(2,6-dichloro-4-methylbenzoyl)-6-methoxybenzyl]-2H-pyridazin-3-one] | 100 | 2 | – | 3.4 | – | 21 | –
5 | COc1ccc(C(=O)c2c(Cl)cc(Cl)cc2Cl)cc1Cc1ccc(=O)n(C)n1 [Cpd 31, 6-[3-(2,4,6-trichlorobenzoyl)-6-methoxybenzyl]-2-methyl-2H-pyridazin-3-one] | 1000 | 1.3 | – | 4 | – | 38 | –
6 | Cc1ccc(C(=O)c2c(Cl)cc(Cl)cc2Cl)cc1Cc1ccc(=O)[nH]n1 [Cpd 61, 6-[3-(2,4,6-trichlorobenzoyl)-6-methylbenzyl]-2H-pyridazin-3-one] | 310 | 0.18 | – | 0.48 | – | – | –

The next lines start with results.

Row | IC50 (COX I [3]) [µM] | IC50 (COX II [4]) [µM] | IC50 (COX I [5]) [µM] | IC50 (COX II [6]) [µM] | Structure (SMILES) | % inhibition of air pouch PGE2 formation ([1]; 10 mg/Kg) [%] | inhibition in vivo at 30 mg/kg [2] [%] | % inhibition of air pouch PGE2 formation ([1]; 30 mg/Kg) [%]
7 | 100 | 1 | 26 | 1 | COc1ccc(C(=O)c2c(Br)cc(C)cc2Br)cc1Cc1ccc(=O)[nH]n1 [Cpd 39, 6-[3-(2,6-dibromo-4-methylbenzoyl)-6-methoxybenzyl]-2H-pyridazin-3-one] | – | 33 | –
8 | 100 | 1.3 | 16 | 1.2 | COc1ccc(C(=O)c2c(C)cc(C)cc2C)cc1Cc1ccc(=O)[nH]n1 [Cpd 44, 6-[3-(2,4,6-trimethylbenzoyl)-6-methoxybenzyl]-2H-pyridazin-3-one] | – | 19 | –
9 | 300 | 0.18 | – | 0.3 | Cc1ccc(C(=O)c2c(Cl)cc(Cl)cc2Cl)cc1Cc1ccc(=O)n(C)n1 [Cpd 62, 6-[3-(2,4,6-trichlorobenzoyl)-6-methylbenzyl]-2-methyl-2H-pyridazin-3-one] | – | 33 | –
10 | 423 | 0.16 | 21 | 0.2 | O=C(c1ccc(Cl)c(Cc2ccc(=O)[nH]n2)c1)c1c(Cl)cc(Cl)cc1Cl [Cpd 73, 6-[3-(2,4,6-trichlorobenzoyl)-6-chlorobenzyl]-2H-pyridazin-3-one] | – | 33 | –
11 | 300 | 0.14 | 17 | 0.03 | O=C(c1ccc(F)c(Cc2ccc(=O)[nH]n2)c1)c1c(Cl)cc(Cl)cc1Cl [Cpd 77, 6-[3-(2,4,6-trichlorobenzoyl)-6-fluorobenzyl]-2H-pyridazin-3-one] | – | – | 53
12 | 740 | 2 | – | 0.3 | O=C(c1cccc(Cc2ccc(=O)[nH]n2)c1)c1c(Cl)cc(Cl)cc1Cl [Cpd 78, 6-[3-(2,4,6-trichlorobenzoyl)benzyl]-2H-pyridazin-3-one] | – | 22 | –
